Reference: US12485132B2, “GPX4 inhibitors and senolytic compounds and uses thereof” (Rubedo Life Sciences, Inc., priority 2023, dated 2025)

The compounds below were run on senescent HEPG2 cells (assay: Senescence assay: viability of senescent HEPG2 cells). Details: Homo sapiens, 24-72 hours incubation, viability by CellTiter-Glo or XTT, read-out: Absolute IC50 average HEPG2_SEN IC50.
Assay type: cell-based
Description: (§1) Cells were maintained in DMEM media (high glucose, 4 mM L-glutamine, no sodium pyruvate) supplemented with 10% fetal bovine serum in a humidified incubator at 37° C. with 5% carbon dioxide. Senescence was induced via treatment with a sublethal concentration of chemotherapy (bleomycin, gemcitabine, doxorubicin, 5-fluorouridine), followed by a rest period without chemotherapy similarly to what is reported by others in the field (e.g., Aoshiba et al., 2003 Eur Respir J 22:436-443). Senescence was qualified by low EdU (5-ethynyl-2′-deoxyuridine) incorporation and high SA-β-Gal (senescence-associated beta-galactosidase) staining compared to proliferating untreated cells. Senescent cells were plated into 96-well plates at a density of 5-15,000 cells/well. The next day, compounds were added in duplicate across ten different concentrations spanning roughly four Log10 units. Cells were incubated with the compounds for 24-72 hours, at which point viability was quantified using CellTiter-Glo (Promega) or XTT (R&D Systems). The viability for treated cells was determined relative to untreated control cells. The log of the compound concentration vs. normalized mean viability was fit to a four parameters Hill function with variable slope. The bottom was constrained to be greater than zero. The X mean value for Y=50 was interpolated to determine the absolute IC50. The results in Table 2 indicate that many of the compounds are active in cells and can induce a dose dependent decrease in the viability of senescent HEPG2 and A549 cells.
With `C#CC(F)(F)[C@]1(O)CC[C@H]2[C@@H]3CCC4=C/C(=N/OCCOC)CCC4=C3[C@@H](c3ccc(C4CC4)cc3)C[C@@]21C` [Compound 3, (8S,11R,13S,14S,17S,E)-11-(4-cyclopropylphenyl)-17-(1,1-difluoroprop-2-yn-1-yl)-17-hydroxy-13-methyl-1,2,6,7,8,11,12,13,14,15,16,17-dodecahydro-3H-cyclopenta[a]phenanthren-3-one O-(2-methoxyethyl)oxime] the IC50 was 10 to 100 nM.
With `C#CC(F)(F)[C@]1(O)CC[C@H]2[C@@H]3CCC4=C/C(=N/NC(=O)O[C@@H]5O[C@@H](C)[C@@H](O)[C@@H](O)[C@@H]5O)CCC4=C3[C@H](c3ccc(C4CC4)cc3)C[C@@]21C` [Compound 31, (2S,3S,4R,5S,6S)-3,4,5-trihydroxy-6-methyltetrahydro-2H-pyran-2-yl (E)-2-((8S,11S,13S,14S,17S)-11-(4-cyclopropylphenyl)-17-(1,1-difluoroprop-2-yn-1-yl)-17-hydroxy-13-methyl-1,2,6,7,8,11,12,13,14,15,16,17-dodecahydro-3H-cyclopenta[a]phenanthren-3-ylidene)hydrazine-1-carboxylate] the IC50 was 10 to 100 nM.
`C#CC(F)(F)[C@]1(O)CC[C@H]2[C@@H]3CCC4=C/C(=N\OCCOC)CCC4=C3[C@@H](c3ccc(C4CC4)cc3)C[C@@]21C` [Compound 2, (8S,11R,13S,14S,17S,Z)-11-(4-cyclopropylphenyl)-17-(1,1-difluoroprop-2-yn-1-yl)-17-hydroxy-13-methyl-1,2,6,7,8,11,12,13,14,15,16,17-dodecahydro-3H-cyclopenta[a]phenanthren-3-one O-(2-methoxyethyl)oxime] showed an IC50 of 10 to 100 nM.
With `C#CC(F)(F)[C@]1(O)CC[C@H]2[C@@H]3CCC4=C/C(=N/N)CCC4=C3[C@H](c3ccc(C4CC4)cc3)C[C@@]21C` [Compound 27, (8S,11S,13S,14S,17S,E)-11-(4-cyclopropylphenyl)-17-(1,1-difluoroprop-2-yn-1-yl)-3-hydrazineylidene-13-methyl-2,3,6,7,8,11,12,13,14,15,16,17-dodecahydro-1H-cyclopenta[a]phenanthren-17-ol] the IC50 was 10 to 100 nM.
With `C#CC(F)(F)[C@]1(O)CC[C@H]2[C@@H]3CCC4=C/C(=N/O[C@@H]5O[C@@H](C)[C@@H](O)[C@@H](O)[C@@H]5O)CCC4=C3[C@@H](c3ccc(C4CC4)cc3)C[C@@]21C` [Compound 20, (8S,11R,13S,14S,17S,E)-11-(4-cyclopropylphenyl)-17-(1,1-difluoroprop-2-yn-1-yl)-17-hydroxy-13-methyl-1,2,6,7,8,11,12,13,14,15,16,17-dodecahydro-3H-cyclopenta[a]phenanthren-3-one O-((2S,3S,4R,5S,6S)-3,4,5-trihydroxy-6-methyltetrahydro-2H-pyran-2-yl) oxime] the IC50 was 0.1 to 10 nM.
For `C#CC(F)(F)[C@]1(O)CC[C@H]2[C@@H]3CCC4=C/C(=N/NC(=O)O[C@@H]5O[C@H](COC(C)=O)[C@H](OC(C)=O)[C@H](OC(C)=O)[C@H]5OC(C)=O)CCC4=C3[C@H](c3ccc(C4CC4)cc3)C[C@@]21C` [Compound 28, (2R,3S,4S,5R,6S)-2-(acetoxymethyl)-6-((2-((8S,11S,13S,14S,17S,E)-11-(4-cyclopropylphenyl)-17-(1,1-difluoroprop-2-yn-1-yl)-17-hydroxy-13-methyl-1,2,6,7,8,11,12,13,14,15,16,17-dodecahydro-3H-cyclopenta[a]phenanthren-3-ylidene)hydrazine-1-carbonyl)oxy)tetrahydro-2H-pyran-3,4,5-triyl triacetate], the IC50 was 10 to 100 nM.

Each compound was assayed on senescent A549 cells (assay: Senescence assay: viability of senescent A549 cells). Details: Homo sapiens, 24-72 hours incubation, viability by CellTiter-Glo or XTT, read-out: Absolute IC50 average A549_SEN IC50.
Assay type: cell-based
Description: as §1
In the case of `C#CC(F)(F)[C@]1(O)CC[C@H]2[C@@H]3CCC4=CC(=O)CCC4=C3[C@@H](c3ccc(OCC(F)(F)F)cc3)C[C@@]21C` [Compound 53, (8S,11R,13S,14S,17S)-17-(1,1-difluoroprop-2-yn-1-yl)-17-hydroxy-13-methyl-11-(4-(2,2,2-trifluoroethoxy)phenyl)-1,2,6,7,8,11,12,13,14,15,16,17-dodecahydro-3H-cyclopenta[a]phenanthren-3-one], the IC50 is reported as 10 to 100 nM.
`C#CC(F)(F)[C@]1(O)CC[C@H]2[C@@H]3CCC4=C/C(=N/OCCN5CCNCC5)CCC4=C3[C@@H](c3ccc(C4CC4)cc3)C[C@@]21C` [Compound 7, (8S,11R,13S,14S,17S,E)-11-(4-cyclopropylphenyl)-17-(1,1-difluoroprop-2-yn-1-yl)-17-hydroxy-13-methyl-1,2,6,7,8,11,12,13,14,15,16,17-dodecahydro-3H-cyclopenta[a]phenanthren-3-one O-(2-(piperazin-1-yl)ethyl)oxime] showed an IC50 of 10 to 100 nM.
`C#CC(F)(F)[C@]1(O)CC[C@H]2[C@@H]3CCC4=CC(=N[N+](C)(C)C)CCC4=C3[C@H](c3ccc(C4CC4)cc3)C[C@@]21C` [Compound 66, 2-((8S,11S,13S,14S,17S)-11-(4-cyclopropylphenyl)-17-(1,1-difluoroprop-2-yn-1-yl)-17-hydroxy-13-methyl-1,2,6,7,8,11,12,13,14,15,16,17-dodecahydro-3H-cyclopenta[a]phenanthren-3-ylidene)-1,1,1-trimethylhydrazin-1-ium] gave an IC50 of 100 to 1000 nM.
Work on `C#CC(F)(F)[C@]1(O)CC[C@H]2[C@@H]3CCC4=C/C(=N/NC(=O)[C@H]5C[C@H](O)C5)CCC4=C3[C@@H](c3ccc(OCC(F)(F)F)cc3)C[C@@]21C` [Compound 71, trans-N′-((8S,11R,13S,14S,17S)-17-(1,1-difluoroprop-2-yn-1-yl)-17-hydroxy-13-methyl-11-(4-(2,2,2-trifluoroethoxy)phenyl)-1,2,6,7,8,11,12,13,14,15,16,17-dodecahydro-3H-cyclopenta[a]phenanthren-3-ylidene)-3-hydroxycyclobutane-1-carbohydrazide] yielded an IC50 of 10 to 100 nM.
For `C#CC(F)(F)[C@]1(O)CC[C@H]2[C@@H]3CCC4=C/C(=N/NC(=O)NCC5CC5)CCC4=C3[C@H](c3ccc(S(=O)(=O)C4CC4)cc3)C[C@@]21C` [Compound 62, (E)-N-(cyclopropylmethyl)-2-((8S,11S,13S,14S,17S)-11-(4-(cyclopropylsulfonyl)phenyl)-17-(1,1-difluoroprop-2-yn-1-yl)-17-hydroxy-13-methyl-1,2,6,7,8,11,12,13,14,15,16,17-dodecahydro 3H-cyclopenta[a]phenanthren-3-ylidene)hydrazine-1-carboxamide], the IC50 was 10 to 100 nM.
Work on `C#CC(F)(F)[C@]1(O)CC[C@H]2[C@@H]3CCC4=CC(=O)CCC4=C3[C@@H](c3ccc(OCC4(C)COC4)cc3)C[C@@]21C` [Compound 72, (8S,11R,13S,14S,17S)-17-(1,1-difluoroprop-2-yn-1-yl)-17-hydroxy-13-methyl-11-(4-((3-methyloxetan-3-yl)methoxy)phenyl)-1,2,6,7,8,11,12,13,14,15,16,17-dodecahydro-3H-cyclopenta[a]phenanthren-3-one] yielded an IC50 of 10 to 100 nM.
`C#CC(F)(F)[C@]1(O)CC[C@H]2[C@@H]3CCC4=C/C(=N/OCCN)CCC4=C3[C@H](c3ccc(C4CC4)cc3)C[C@@]21C` [Compound 68, 2-((((8S,11S,13S,14S,17S,E)-11-(4-cyclopropylphenyl)-17-(1,1-difluoroprop-2-yn-1-yl)-17-hydroxy-13-methyl-1,2,6,7,8,11,12,13,14,15,16,17-dodecahydro-3H-cyclopenta[a]phenanthren-3-ylidene)amino)oxy)ethan-1-aminium chloride] was tested, and the IC50 was 10 to 100 nM.
With `C#CC(F)(F)[C@]1(O)CC[C@H]2[C@@H]3CCC4=CC(=O)CCC4=C3[C@H](c3ccc(OCC4(C)CCC4)cc3)C[C@@]21C` [Compound 60, (8S,11S,13S,14S,17S)-17-(1,1-difluoroprop-2-yn-1-yl)-17-hydroxy-13-methyl-11-(4-((1-methylcyclobutyl)methoxy)phenyl)-1,2,6,7,8,11,12,13,14,15,16,17-dodecahydro-3H-cyclopenta[a]phenanthren-3-one] the IC50 was 0.1 to 10 nM.
For `C#CC(F)(F)[C@]1(O)CC[C@H]2[C@@H]3CCC4=CC(=O)CCC4=C3[C@H](c3ccc(OCc4ccc(S(=O)(=O)C(F)(F)F)cc4)cc3)C[C@@]21C` [Compound 57, (8S,11S,13S,14S,17S)-17-(1,1-difluoroprop-2-yn-1-yl)-17-hydroxy-13-methyl-11-(4-((4-((trifluoromethyl)sulfonyl)benzyl)oxy)phenyl)-1,2,6,7,8,11,12,13,14,15,16,17-dodecahydro-3H-cyclopenta[a]phenanthren-3-one], the IC50 was 10 to 100 nM.
Compound `C#CC(F)(F)[C@]1(O)CC[C@H]2[C@@H]3CCc4cc(OCCN5CCOCC5)ccc4C3[C@@H](c3ccc(S(=O)(=O)C4CC4)cc3)C[C@@]21C` (stereo partly drawn) [Compound 77, (8S,11S,13S,14S,17S)-11-(4-(cyclopropylsulfonyl)phenyl)-17-(1,1-difluoroprop-2-yn-1-yl)-13-methyl-3-(2-morpholinoethoxy)-7,8,9,11,12,13,14,15,16,17-decahydro-6H-cyclopenta[a]phenanthren-17-ol] has an IC50 of at least 1000 nM.
For `C#CC(F)(F)[C@]1(O)CC[C@H]2[C@@H]3CCC4=C(Cl)C(=O)CCC4=C3[C@H](c3ccc(OCC(F)(F)F)cc3)C[C@@]21C` [Compound 59, (8S,11S,13S,14S,17S)-4-chloro-17-(1,1-difluoroprop-2-yn-1-yl)-17-hydroxy-13-methyl-11-(4-(2,2,2-trifluoroethoxy)phenyl)-1,2,6,7,8,11,12,13,14,15,16,17-dodecahydro-3H-cyclopenta[a]phenanthren-3-one], the IC50 was 10 to 100 nM.
